In patent US7468384B2, “Microbicidal composition” (Rohm and Haas Company, priority 2004, dated 2008):
Read-outs that look alike come from different tables or passages of the source.

Legend:
Type in all cases: cell-based
[1] = system: Candida albicans (C. albicans—ATCC 10231); experiment: Synergy test, microtiter plate high resolution MIC assay, yeast; conditions: for MIC: Candida albicans
In short: (§1)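 Values derive from Kull synergy index (Qa/QA + Qb/QB, ppm MIC endpoints, alone vs in mixture). Endpoints from high-resolution microtiter MICs spanning 2–10,000 ppm; bacterium ~5×10^6/mL in TSB or M9GY, yeast and mold 5×10^5/mL in PDB.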

[2] = system: Pseudomonas aeruginosa (P. aeruginosa—ATCC #15442); experiment: Synergy test, microtiter plate high resolution MIC assay, bacterium; conditions: for MIC: Pseudomonas aeruginosa
In short: as §1

[3] = system: Escherichia coli (E. coli—ATCC #8739); experiment: as above; conditions: Escherichia coli, ATCC8739, 24 h, read-out: MIC of component acting alone (QA / QB)
In short: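 High-resolution MICs were found by adding microbicide to one microtitre column and making ten-fold dilutions with an automated liquid handler, giving endpoints from 2 ppm to 10,000 ppm active ingredient. The MIC is the lowest concentration that prevents growth. E. coli 8739, at roughly 5×10^6 cells per mL, grew in glucose/yeast-extract-supplemented minimal salt medium (M9GY). Values above one indicate antagonism.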

[4] = system: Aspergillus niger (A. niger—ATCC 16404); experiment: Synergy test, microtiter plate high resolution MIC assay, mold; conditions: for MIC: Aspergillus niger; for SI (calculated synergy index): A. niger 16404, PDB
In short: as §1

`Cn1sccc1=O` [2-methyl-3-isothiazolone, 2-methyl-4-isothiazolin-3-one] was tested, and the MIC ([1]; ATCC10231, 24 h, read-out: MIC of component acting alone (QA / QB)) was 200 µg/mL, the MIC ([1]; ATCC10231, 24 h, read-out: Qa: end-point activity (MIC) of MI in the mixture (MI alone, QA, where Qb = 0)) was 125 µg/mL and the MIC ([1]; ATCC10231, 48 h, read-out: MIC of component acting alone (QA / QB)) was 200 µg/mL. For the same compound, the MIC ([1]; ATCC10231, 72 h, read-out: MIC of component acting alone (QA / QB)) was 200 µg/mL, the “SI (calculated synergy index)” value ([1]; Table 5, C. albicans 10231, PDB, 24 hours) was 1.00 and the “SI (calculated synergy index)” value ([1]; Table 6, C. albicans 10231, PDB, 24 hours) was 1.00. For the same compound, the “Qa: end-point activity (MIC) of MI in the mixture (MI alone, QA, where Qb = 0)” value ([1]; Table 6, C. albicans 10231, PDB, 24 hours, B = Cocamidopropyl PG-dimonium chloride phosphate) was 125 ppm, the “MIC of component acting alone (QA / QB)” value ([2]; P. aeruginosa 15442, M9GY, 48 hours) was 30 ppm and the MIC ([2]; ATCC15442, 24 h, read-out: MIC of component acting alone (QA / QB), P. aeruginosa 15442, TSB, 24 hours) was 50 µg/mL. The MIC ([2]; ATCC15442, 48 h, read-out: MIC of component acting alone (QA / QB), P. aeruginosa 15442, M9GY, 48 hours) was 20 µg/mL, the MIC ([2]; ATCC15442, 48 h, read-out: MIC of component acting alone (QA / QB), P. aeruginosa 15442, TSB, 48 hours) was 60 µg/mL and the MIC ([2]; ATCC15442, 48 h, read-out: Qa: end-point activity (MIC) of MI in the mixture (MI alone, QA, where Qb = 0), Table 5, P. aeruginosa 15442, M9GY, 48 hours, B = Linoleamidopropyl PG-dimonium chloride phosphate) was 30 µg/mL. It also gave an MIC ([2]; ATCC15442, 48 h, read-out: Qa: end-point activity (MIC) of MI in the mixture (MI alone, QA, where Qb = 0), Table 5, P. aeruginosa 15442, TSB, 48 hours, B = Linoleamidopropyl PG-dimonium chloride phosphate) of 80 µg/mL, an MIC ([2]; ATCC15442, 48 h, read-out: Qa: end-point activity (MIC) of MI in the mixture (MI alone, QA, where Qb = 0), Table 6, P. aeruginosa 15442, TSB, 48 hours, B = Cocamidopropyl PG-dimonium chloride phosphate) of 80 µg/mL and an MIC ([2]; ATCC15442, 72 h, read-out: MIC of component acting alone (QA / QB), P. aeruginosa 15442, TSB, 72 hours) of 70 µg/mL. For the same compound, the MIC ([2]; ATCC15442, 72 h, read-out: Qa: end-point activity (MIC) of MI in the mixture (MI alone, QA, where Qb = 0), Table 6, P. aeruginosa 15442, M9GY, 72 hours, B = Cocamidopropyl PG-dimonium chloride phosphate) was 30 µg/mL, the “SI (calculated synergy index)” value ([2]; Table 5, P. aeruginosa 15442, M9GY, 48 hours) was 1.00 and the “SI (calculated synergy index)” value ([2]; Table 5, P. aeruginosa 15442, TSB, 48 hours) was 1.00. For the same compound, the “SI (calculated synergy index)” value ([2]; Table 6, P. aeruginosa 15442, M9GY, 72 hours) was 1.00, the “SI (calculated synergy index)” value ([2]; Table 6, P. aeruginosa 15442, TSB, 48 hours) was 1.00 and the MIC [3] was 30 µg/mL. The MIC ([4]; ATCC16404, 96 h, read-out: MIC of component acting alone (QA / QB)) was 400 µg/mL, the MIC ([4]; ATCC16404, 96 h, read-out: Qa: end-point activity (MIC) of MI in the mixture (MI alone, QA, where Qb = 0)) was 400 µg/mL and the MIC ([4]; ATCC16404, 168 h, read-out: MIC of component acting alone (QA / QB)) was 500 µg/mL. The MIC ([4]; ATCC16404, 168 h, read-out: Qa: end-point activity (MIC) of MI in the mixture (MI alone, QA, where Qb = 0)) was 400 µg/mL, the “SI (calculated synergy index)” value ([4]; Table 5, 7 days) was 1.00 and the “SI (calculated synergy index)” value ([4]; Table 6, 4 days) was 1.00.
